# Source: patent publication US20240238268A1, “TREATMENTS AND METHODS FOR TREATING ALZHEIMER'S DISEASE” (Board of Supervisors of Louisiana State University and …, priority 2021, published 2024)
# Legend:
# NOTCH1 = NOTCH1 protein level in brain, capillary-based immunoassay; type: in vivo, mouse; details: aged 3xTg-AD female mice; TP-064 30 mg/kg, 7 days, IP or AAV knockdown
# Procedure: NOTCH1 protein level in cortex, FIG. 13A, and hippocampus, FIG. 13B, was decreased in aged 3xTg-AD female mice v. male counterparts. Treatment with specific PRMT4 specific inhibitor (TP-064, 30 mg/kg, 7 days, IP) or AAV knockdown of PRMT4 enhanced NOTCH1 protein level in cortex, […], and hippocampus, […], in aged 3xTg-AD female mice. Relative NOTCH1 protein (˜110 kDa) level was measured by capillary-based immunoassay and normalized to total protein. * p<0.05 v. control male mice evaluated by unpaired t-test in FIGS. 13A and 13B. * p<0.05 compared to C57, #p<0.05 compared to 3xTg-AD+TP-064, $p<0.05 compared to 3xTg-AD+AAV, evaluated by one-way ANOVA with Tukey's post-hoc analyses in FIGS. 13C and 13D.
# FIGS. 16A-16G show NOTCH1 inhibition (via crenigacestat) decreased ZO-1 and occluding and AAV knockdown of PRMT4 enhanced ZO-1 and occludin. […] C57 female mice. FIGS. 16B and 16C show crenigacestat (10 mg/kg, IP, 7 days) reduced NOTCH1 (110 kDa) protein level in the cortex and hippocampus of aged C57 female mice. AAV knockdown of PRMT4 increased NOTCH1 protein level. FIGS. 16D-16G show ZO-1 (220 kDa), and occludin (60 kDa) tight junctional proteins were decreased in the cortex and hippocampus in presence of NOTCH1 inhibitor in C57. PRMT4-AAV increased the expression of ZO-1 and occludin in aged 3xTg-AD female mice. Protein level was measured by capillary-based immunoassay and normalized to total protein. * p<0.05 compared to C57, #p<0.05 compared to 3xTg-AD, $p<0.05 compared to 3xTg-AD+AAV as evaluated by one-way ANOVA with Tukey's post-hoc analyses.
# Capillary-phoresis immunoassay via ProteinSimple®: Quantification of all protein targets was achieved using Simple Western analysis in a Jess™ apparatus per the manufacturer's protocol (ProteinSimple, Bio-techne, Minneapolis, MN). […] Following homogenization and centrifugation (10,000×g, 5 min, 4° C.), protein concentration was determined in tissue protein supernatant samples using DC Protein Assay (Cat. No. 5000112, Bio-Rad Laboratories, Hercules, California) according to manufacturer instructions. […] Antibody diluent (ProteinSimple, Bio-techne, Minneapolis, MN) was used for all antibody dilutions as follows: PRMT4 (1:50, RRID: AB_2068436), PRMT6 (1:100, Cell Signaling Technology cat. 14641), eNOS (1:200, RRID: AB_10850618), nNOS (1:100, RRID: AB_2152488), iNOS (1:100, RRID: AB_10000625), DDAH2 (1:50, RRID: AB_2640442) Antibodies were detected using HRP-conjugated secondary anti-rabbit, and -mouse. Relative protein levels were calculated by measuring the area under the peak of a chemiluminescent chromatogram and normalized to total capillary chemiluminescence for a given sample. […]
# [1] = tested on: amyloid precursor protein (APP); experiment: Amyloid precursor protein level in brain, capillary-phoresis; type: in vivo, mouse; details: treated 3xTg-AD mice; controls = 100%; not significantly changed vs untreated 3xTg
# Excerpt: Capillary-phoresis immunoassay via ProteinSimple®: Quantification of all protein targets was achieved using Simple Western analysis in a Jess™ apparatus per the manufacturer's protocol (ProteinSimple, Bio-techne, Minneapolis, MN). Protein was extracted from dissected tissue in an extraction buffer consisting of T-PER® Tissue Protein Extraction Reagent (Cat. No. 78510, Thermo Fischer Scientific, Waltham, MA) and Halt™ Protease Inhibitor Cocktail (Cat. No. 87785, Thermo Fischer Scientific, Waltham, MA). Following homogenization and centrifugation (10,000×g, 5 min, 4° C.), protein concentration was determined in tissue protein supernatant samples using DC Protein Assay (Cat. No. 5000112, Bio-Rad Laboratories, Hercules, California) according to manufacturer instructions. […] Antibody diluent (ProteinSimple, Bio-techne, Minneapolis, MN) was used for all antibody dilutions as follows: PRMT4 (1:50, RRID: AB_2068436), PRMT6 (1:100, Cell Signaling Technology cat. 14641), eNOS (1:200, RRID: AB_10850618), nNOS (1:100, RRID: AB_2152488), iNOS (1:100, RRID: AB_10000625), DDAH2 (1:50, RRID: AB_2640442) Antibodies were detected using HRP-conjugated secondary anti-rabbit, and -mouse. Relative protein levels were calculated by measuring the area under the peak of a chemiluminescent chromatogram and normalized to total capillary chemiluminescence for a given sample. […]
smiles,measurement,setting,value
"CNCCN1CCC(c2cc(CN(C)C(=O)c3cccc(Oc4ccccc4)c3)ccn2)CC1 [TP-064, N-Methyl-N-((2-(1-(2-(methylamino)ethyl)piperidin-4-yl)pyridin-4-yl)methyl)-3-phenoxybenzamide]",NOTCH1 protein level in cortex,NOTCH1,enhanced
same,NOTCH1 protein level in hippocampus,NOTCH1,enhanced
same,APP level in cortex,[1],801%±36.3
same,APP level in hippocampus,[1],1040%±31.1
